For assay [1], the system named is male Sprague-Dawley rats. Kind of assay: in vivo screen APCC: blood cholesterol in rats after one night on a high fat, high cholesterol diet (PCC). Conditions: blood cholesterol vs vehicle (CMC/Tween), dosed at 4 PM, PCC diet containing 0.5% cholic acid overnight, sacrificed at 8 AM, dose not given. From the text:
In one in vivo screen designated APCC, male Sprague-Dawley rats (200 to 225 g) were randomly divided into treatment groups and dosed at 4 PM with either vehicle (CMC/Tween) or suspensions of compounds in vehicle. The normal chow diet was then replaced with a high fat, high cholesterol diet (designated PCC) containing 0.5% cholic acid. The rats consumed this diet ad libitum during the night and were sacrificed at 8 AM to obtain blood samples for cholesterol analysis using standard procedures. Statistical differences between mean cholesterol values for the same vehicle were determined using analysis of variance followed by Fisher's least significant test.

For assay [2], the target named is acyl-CoA: cholesterol acyltransferase (ACAT). Kind of assay: in vitro ACAT inhibition test (IAI): formation of radiolabeled cholesterol oleate from radiolabeled oleic acid in intestinal microsomes. It counts as biochemical. Conditions: tissue preparation containing rabbit intestinal microsomes, concentration required to inhibit the activity of the enzyme by 50%, read-out: IAI IC₅₀. As for the experimental part:
The ability of representative compounds of the present invention to inhibit ACAT was measured using an in vitro test more fully described in F. J. Field and R. G. Salone, Biochemica et Biophysica 712:557-570 (1982). The test assesses the ability of a test compound to inhibit the acylation of cholesterol by oleic acid by measuring the amount of radiolabeled cholesterol oleate formed from radiolabeled oleic acid in a tissue preparation containing rabbit intestinal microsomes.
The data appear in Table 1 where they are expressed in IC₅₀ values; i.e., the concentration of test compound required to inhibit the activity of the enzyme by 50%.

Counter-ions that a name gives are not always drawn. Like-named read-outs stand apart in the source and are kept apart here.

On to `CCCCCCCCCCCCCCCCOS(=O)(=O)NC(=O)Oc1c(C(C)C)cccc1C(C)C` [Example 23, 2,6-Bis(1-methylethyl)phenyl[(hexadecyloxy)sulfonyl]carbamate], for which, in assay [1], the “% Change (mg/dl)” value is -59%.
On the same count and under the same terms, the same measure for `CCCCCCOS(=O)(=O)NC(=O)Oc1c(C(C)(C)C)cc(C)cc1C(C)(C)C` [Example 3, 2,6-Bis(1,1-dimethylethyl)-4-methylphenyl[(hexyloxy)sulfonyl]carbamate]: -56%.
For the compound `CCCCCCCCCCCCOC(=O)NS(=O)(=O)Oc1c(C(C)C)cccc1C(C)C` [Example 5, Dodecyl [[2,6-bis(1-methylethyl)phenoxy]sulfonyl]carbamate], in assay [2], the IC50 was determined as 13 µM. In assay [1], the “% Change (mg/dl)” value was -62%.
With `Cc1cc(C(C)(C)C)c(OC(=O)NS(=O)(=O)Oc2ccccc2)c(C(C)(C)C)c1` [Example 2, 2,6-Bis(1,1-dimethylethyl)-4-methylphenyl(phenoxysulfonyl)carbamate], the “% Change (mg/dl)” value in assay [1] is on record as -65%.
Regarding `CC(C)c1cccc(C(C)C)c1OS(=O)(=O)NC(=O)Oc1c(C(C)(C)C)cccc1C(C)(C)C` [Example 9, 2,6-Bis(1,1-dimethylethyl)phenyl[[2,6-bis(1-methylethyl)phenoxy]sulfonyl]carbamate], the “% Change (mg/dl)” value in assay [1] is given as -70%.
The same measure, in the same setting: as for `COc1cccc(OC)c1OC(=O)NS(=O)(=O)Oc1c(OC)cccc1OC` [Example 25, 2,6-dimethoxyphenyl[(2,6-dimethoxyphenoxy)sulfonyl]carbamate], the figure is -10%.
On the same count and under the same terms, as for `CC(C)c1cccc(C(C)C)c1OC(=O)NS(=O)(=O)Oc1ccccc1` [Example 17, 2,6-Bis(1-methylethyl)phenyl(phenoxysulfonyl)carbamate], the figure is -26%.
Consider `COC(=O)NS(=O)(=O)Oc1c(C(C)C)cccc1C(C)C` [Example 6, Methyl[[2,6-bis(1-methylethyl)phenoxy]sulfonyl]carbamate], for which, in assay [2], the IC50 was above 100 µM.
In the case of `Cc1cccc(C)c1OS(=O)(=O)NC(=O)Oc1c(C(C)C)cccc1C(C)C` [Example 18, 2,6-Bis(1-methylethyl)phenyl[(2,6-dimethylphenoxy)sulfonyl]carbamate], in assay [1], the “% Change (mg/dl)” value is on record as -58%.
Turning to `CC(C)c1cccc(C(C)C)c1OC(=O)NS(=O)(=O)Oc1c(C(C)C)cccc1C(C)C` [Example 27, 2,6-bis(1-methylethyl)phenyl[[2,6-bis(1-methylethyl)phenoxylsulfonyl]carbamate, 2-hydroxy-N,N,N-trimethylethanaminium salt], the IC50 in assay [2] is 3.3 µM. Besides, the “% Change (mg/dl)” value in assay [1] is recorded as -72%.
For `COc1cccc(OC)c1OS(=O)(=O)NC(=O)Oc1c(C(C)C)cccc1C(C)C` [Example 19, 2,6-Bis(1-methylethyl)phenyl[(2,6-dimethoxyphenoxy)sulfonyl]carbamate], the “% Change (mg/dl)” value in assay [1] is given as -70%.
`CCCCCCCCCCCCOS(=O)(=O)NC(=O)Oc1c(C(C)(C)C)cc(C)cc1C(C)(C)C` [Example 4]: the IC50 in assay [2] stood at 52 µM. Also, the “% Change (mg/dl)” value in assay [1] is listed as -65%.
Turning to `CC(C)(C)c1cccc(C(C)(C)C)c1OC(=O)NS(=O)(=O)Oc1c(C(C)(C)C)cccc1C(C)(C)C` [Example 26, 2,6-Bis(1,1-dimethylethyl)phenyl[(2,6-bis(1,1-dimethylethyl)phenoxy)sulfonyl]carbamate], the “% Change (mg/dl)” value in assay [1] is -18%.
Take `CC(C)c1cccc(C(C)C)c1OC(=O)NS(=O)(=O)Oc1c(F)cccc1F` [Example 22]: in assay [2], the IC50 is 38 µM. Besides, the “% Change (mg/dl)” value in assay [1] was “+9%”.
The matching figures for `CC(C)c1cccc(C(C)C)c1OC(=O)N(C)S(=O)(=O)Oc1c(C(C)C)cccc1C(C)C` [Example 31, 2,6-bis(1-methylethyl)phenyl[[2,6-bis(1-methylethyl)phenoxylsulfonyl]methyl carbamate]: 63 µM and -64%.
Consider `CC(C)c1cccc(C(C)C)c1OC(=O)NS(=O)(=O)Oc1c(C(C)C)cccc1C(C)C` [Example 1, 2,6-Bis(1-methylethyl)phenyl[[2,6-bis(1-methylethyl)phenoxy]sulfonyl]carbamate], for which the “% Change (mg/dl)” value in assay [1] is -70%.
For the compound `CC(C)c1cccc(C(C)C)c1OC(=O)NS(=O)(=O)Oc1c(C(C)C)cccc1C(C)C` [Example 28, 2,6-bis(1-methylethyl)phenyl[[2,6-bis(1-methylethyl)phenoxy]sulfonyl]carbamate, monosodium salt], the IC50 in assay [2] (monosodium salt) came to 5.2 µM. Further, the “% Change (mg/dl)” value in assay [1] (monosodium salt) is -65%.
As for `CCCCCCCCCCCCOS(=O)(=O)NC(=O)Oc1c(C(C)C)cccc1C(C)C` [Example 8], the IC50 in assay [2] is 13 µM. The “% Change (mg/dl)” value in assay [1] is recorded as -68%.
Regarding `COc1cc(OC)c(OS(=O)(=O)NC(=O)Oc2c(C(C)C)cccc2C(C)C)c(OC)c1` [Example 21, 2,6-Bis(1-methylethyl)phenyl[(2,4,6-trimethoxyphenoxy)sulfonyl]carbamate], the “% Change (mg/dl)” value in assay [1] is recorded as -61%.
For `CCCCCCOS(=O)(=O)NC(=O)Oc1c(C(C)C)cccc1C(C)C` [Example 7, 2,6-Bis(1-methylethyl)phenyl[(hexyloxy)sulfonyl]carbamate], the “% Change (mg/dl)” value in assay [1] is listed as -52%.
With `CC(C)c1cccc(C(C)C)c1OC(=O)NS(=O)(=O)Oc1c(C(C)(C)C)cccc1C(C)(C)C` [Example 24, 2,6-Bis(1-methylethyl)phenyl[[2,6-bis(1,1-dimethylethyl)phenoxy]sulfonyl]carbamate], the “% Change (mg/dl)” value in assay [1] is on record as -55%.
Still for that read-out and setting: as for `CCCCCCCCCCCCOS(=O)(=O)NC(=O)Sc1c(C(C)C)cccc1C(C)C` [Example 30, S-[2,6-bis(1-methylethyl)phenyl][(dodecyloxy)sulfonyl]carbamothioate], the figure is -9%.
On to `CC(C)c1cccc(C(C)C)c1OC(=O)NS(=O)(=O)Oc1ccc(F)cc1F` [Example 20], for which, in assay [2], the IC50 was found to be 50 µM. In assay [1], the “% Change (mg/dl)” value is listed as -11%.
The corresponding values for `CCCCCCCCCCCCOS(=O)(=O)NC(=O)Oc1c(-c2ccccc2)cccc1-c1ccccc1` [Example 10, [1,1':3',1''-Terphenyl]-2'-yl[(dodecyloxy)sulfonyl]carbamate] are above 10 µM and -69%.
